Reference: ChEMBL document CHEMBL4680303, “Amine skeleton-based c-di-GMP derivatives as biofilm formation inhibitors” (Bioorg Med Chem Lett, 2021)
Activity calls are given as the source filed them. The calls are words filed in the database; no cut-off is given here.

Columns and labels:
[1] = tested on: Streptococcus mutans; assay: Antibiofilm activity against Streptococcus mutans NBRC13955 assessed as inhibition of biofilm formation at 500 uM incubated for 24 hrs by crystal violet staining based microtiter plate reader assay relative to control; values are per cent of control; details: NBRC13955, 24 h
[2] = tested on: Escherichia coli; assay: Antibacterial activity against Escherichia coli DH5alpha assessed as bacterial cell density at 500 uM relative to control; type: functional, DH5[alpha]
[3] = tested on: Staphylococcus aureus; assay: Antibiofilm activity against Staphylococcus aureus NBRC13276 assessed as inhibition of biofilm formation at 500 uM incubated for 24 hrs by crystal violet staining based microtiter plate reader assay relative to control; values are per cent of control; details: NBRC13276, 24 h
[4] = tested on: Pseudomonas aeruginosa; assay: Antibacterial activity against Pseudomonas aeruginosa NBRC13275 assessed as bacterial cell density at 500 uM relative to control; type: functional
[5] = tested on: Escherichia coli; assay: Antibiofilm activity against Escherichia coli DH5alpha assessed as inhibition of biofilm formation at 500 uM incubated for 24 hrs by crystal violet staining based microtiter plate reader assay relative to control; values are per cent of control; details: DH5[alpha]
[6] = tested on: Streptococcus mutans; assay: Antibacterial activity against Streptococcus mutans NBRC13955 assessed as bacterial cell density at 500 uM relative to control; type: functional
[7] = tested on: Pseudomonas aeruginosa; assay: Antibiofilm activity against Pseudomonas aeruginosa NBRC13275 assessed as inhibition of biofilm formation at 500 uM incubated for 6 hrs by crystal violet staining based microtiter plate reader assay relative to control; values are per cent of control; details: NBRC13275, 6 h
[8] = tested on: Staphylococcus aureus; assay: Antibacterial activity against Staphylococcus aureus NBRC13276 assessed as bacterial cell density at 500 uM relative to control; type: functional
[9] = Growth inhibition of Staphylococcus aureus NBRC13276 at 1000 uM
[10] = tested on: Pseudomonas aeruginosa; assay: Antimicrobial activity against Pseudomonas aeruginosa assessed as inhibition of flagella synthesis relative to control; type: functional, organism-based

Row | Compound | biofilm formation (% of control) at 500 µM [1] | Activity [2] | biofilm formation (% of control) at 500 µM [3] | Activity [4] | biofilm formation (% of control) at 500 µM [5] | Activity [6] | biofilm formation (% of control) at 500 µM [7] | Activity [8] | growth inhibition (GI) [9] | Activity [10]
1 | Nc1nc2c(ncn2CC(=O)NCCNCCNC(=O)Cn2cnc3c(=O)[nH]c(N)nc32)c(=O)[nH]1 | 98% | 95% | 42% | 112% | 99% | 109% | 87% | 102% | – | –
2 | CC(=O)N(CCNC(=O)Cn1cnc2c(=O)[nH]c(N)nc21)CCNC(=O)Cn1cnc2c(=O)[nH]c(N)nc21 | 87% | 101% | 76% | 119% | 116% | 154% | 104% | 108% | – | –
3 | Nc1nc2c(ncn2CC(=O)N2CCNCCN(C(=O)Cn3cnc4c(=O)[nH]c(N)nc43)CCNCC2)c(=O)[nH]1 | 96% | 93% | 89% | 100% | 133% | 138% | 85% | 108% | – | –
4 | CCC(=O)N1CCN(C(=O)Cn2cnc3c(=O)[nH]c(N)nc32)CCN(C(=O)CC)CCN(C(=O)Cn2cnc3c(=O)[nH]c(N)nc32)CC1 | 46% | 105% | 76% | 118% | 153% | 117% | 76% | 124% | – | –
5 | Nc1nc2c(ncn2CC(=O)N2CCN(CC(=O)O)CCN(C(=O)Cn3cnc4c(=O)[nH]c(N)nc43)CCN(CC(=O)O)CC2)c(=O)[nH]1 | 90% | 85% | 74% | 90% | 83% | 105% | 82% | 117% | – | –
6 | CCC(=O)N(CCNC(=O)Cn1cnc2c(=O)[nH]c(N)nc21)CCNC(=O)Cn1cnc2c(=O)[nH]c(N)nc21 | 125% | 95% | 85% | 98% | 97% | 106% | 94% | 92% | – | –
7 | CC(=O)NCCNCCNC(=O)Cn1cnc2c(=O)[nH]c(N)nc21 | 101% | 85% | 135% | 119% | 108% | 92% | 99% | 100% | – | –
8 | CC(C)C(=O)N1CCN(C(=O)Cn2cnc3c(=O)[nH]c(N)nc32)CCN(C(=O)C(C)C)CCN(C(=O)Cn2cnc3c(=O)[nH]c(N)nc32)CC1 | 88% | 559% | 87% | 313% | 118% | 206% | 114% | 267% | – | –
9 | Nc1nc2c(ncn2CC(=O)NCCN(CCNC(=O)Cn2cnc3c(=O)[nH]c(N)nc32)CC(=O)O)c(=O)[nH]1 | 78% | 95% | 87% | 126% | 138% | 188% | 82% | 99% | – | –
10 | NCCN(CCNC(=O)Cn1cnc2c(=O)[nH]c(N)nc21)C(=O)Cn1cnc2c(=O)[nH]c(N)nc21 | 87% | 95% | 87% | 116% | 104% | 98% | 103% | 124% | – | –
11 | CC(=O)N1CCN(C(=O)Cn2cnc3c(=O)[nH]c(N)nc32)CCN(C(C)=O)CCN(C(=O)Cn2cnc3c(=O)[nH]c(N)nc32)CC1 | 40% | 52% | 20% | 90% | 36% | 136% | 60% | 150% | Non-Toxic | inactive
12 | CC(C)C(=O)N(CCNC(=O)Cn1cnc2c(=O)[nH]c(N)nc21)CCNC(=O)Cn1cnc2c(=O)[nH]c(N)nc21 | 147% | 97% | 103% | 98% | 107% | 104% | 83% | 92% | – | –
13 | Nc1nc2c(ncn2[C@@H]2O[C@@H]3COP(=O)(O)O[C@H]4[C@@H](O)[C@H](n5cnc6c(=O)[nH]c(N)nc65)O[C@@H]4COP(=O)(O)O[C@H]3[C@H]2O)c(=O)[nH]1 | 18% | 76% | 123% | 78% | 81% | 98% | 48% | 106% | – | –
14 | Nc1nc2c(ncn2CC(=O)N2CCN(C(=O)OCc3ccccc3)CCN(C(=O)Cn3cnc4c(=O)[nH]c(N)nc43)CCN(C(=O)OCc3ccccc3)CC2)c(=O)[nH]1 | 17% | 91% | 80% | 105% | 138% | 143% | 86% | 111% | – | –
15 | Nc1nc2c(ncn2CC(=O)N2CCNCCN(C(=O)Cn3cnc4c(=O)[nH]c(N)nc43)CC2)c(=O)[nH]1 | 92% | 95% | 92% | 105% | 103% | 121% | 105% | 103% | – | –
